Laboratory results reported in ChEMBL document CHEMBL1201862, “PubChem BioAssay data set” (2004).
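In this assay, cells in 96-well plates receive the compound at five concentrations for 48 hours. Endpoints are linearly interpolated between the surrounding concentrations. GI50 is the concentration that inhibits growth by half.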 The source made the active and inactive calls. No stated cut-off is given here; in the data, active = GI50 up to about 1.1 µM and inactive = higher.

Assays:
Test in all cases: NCI-60 cell line screen, 48 h
786-0 = system: 786-0
A498 = system: A498
A549 = system: A549
ACHN = system: ACHN
BT-549 = system: BT-549
CAKI-1 = system: CAKI-1
CCRF-CEM = system: CCRF-CEM
COLO 205 = system: COLO 205
DU-145 = system: DU-145
EKVX = system: EKVX
HCC 2998 = system: HCC 2998
HCT-116 = system: HCT-116
HCT-15 = system: HCT-15
HL-60 = system: HL-60
HOP-62 = system: HOP-62
HOP-92 = system: HOP-92
HT-29 = system: HT-29
Hs-578T = system: Hs-578T
IGROV-1 = system: IGROV-1
K562 = system: K562
KM12 = system: KM12
LOX IMVI = system: LOX IMVI
M14 = system: M14
MCF7 = system: MCF7
MDA-MB-231 = system: MDA-MB-231
MDA-MB-435 = system: MDA-MB-435
MDA-N = system: MDA-N
MOLT-4 = system: MOLT-4
Malme-3M = system: Malme-3M
NCI-H226 = system: NCI-H226
NCI-H23 = system: NCI-H23
NCI-H460 = system: NCI-H460
NCI-H522 = system: NCI-H522
NCI/ADR-RES = system: NCI/ADR-RES
OVCAR-3 = system: OVCAR-3
OVCAR-4 = system: OVCAR-4
OVCAR-5 = system: OVCAR-5
OVCAR-8 = system: OVCAR-8
PC-3 = system: PC-3
RPMI-8226 = system: RPMI-8226
RXF 393 = system: RXF 393
SF-268 = system: SF-268
SF-295 = system: SF-295
SF-539 = system: SF-539
SK-MEL-28 = system: SK-MEL-28
SK-MEL-2 = system: SK-MEL-2
SK-MEL-5 = system: SK-MEL-5
SK-OV-3 = system: SK-OV-3
SN12C = system: SN12C
SNB-19 = system: SNB-19
SNB-75 = system: SNB-75
SR = system: SR
SW-620 = system: SW-620
T47D = system: T47D
TK-10 = system: TK-10
U-251 = system: U-251
UACC-257 = system: UACC-257
UACC-62 = system: UACC-62
UO-31 = system: UO-31

With `CC(=O)O[C@H]1C[C@@H](O[C@H]2[C@@H](O)C[C@H](O[C@H]3[C@@H](O)C[C@H](O[C@H]4CC[C@@]5(C)[C@H](CC[C@@H]6[C@@H]5C[C@@H](O)[C@]5(C)[C@@H](C7=CC(=O)OC7)CC[C@]65O)C4)O[C@@H]3C)O[C@@H]2C)O[C@H](C)[C@H]1O.CC(=O)O[C@H]1[C@@H](O)C[C@@H](O[C@H]2[C@@H](O)C[C@H](O[C@H]3[C@@H](O)C[C@H](O[C@H]4CC[C@@]5(C)[C@H](CC[C@@H]6[C@@H]5C[C@@H](O)[C@]5(C)[C@@H](C7=CC(=O)OC7)CC[C@]65O)C4)O[C@@H]3C)O[C@@H]2C)O[C@@H]1C` the GI50 (786-0) was 22.3 nM (active), the GI50 (A498) was 38.6 nM (active) and the GI50 (A549) was 11.9 nM (active). The GI50 (ACHN) was 13.6 nM (active), the GI50 (BT-549) was 42.5 nM (active) and the GI50 (CAKI-1) was 30.8 nM (active). For the same compound, the GI50 (CCRF-CEM) was 617 nM (active), the GI50 (COLO 205) was 47.2 nM (active) and the GI50 (DU-145) was 19.2 nM (active). The GI50 (EKVX) was 17.5 nM (active), the GI50 (HCC 2998) was 104 nM (active) and the GI50 (HCT-116) was 26.2 nM (active). The GI50 (HCT-15) was 30.8 nM, the GI50 (HL-60) was 38.2 nM (active) and the GI50 (HOP-62) was 33.6 nM (active). For the same compound, the GI50 (HOP-92) was 56.1 nM (active), the GI50 (HT-29) was 27.8 nM (active) and the GI50 (Hs-578T) was 25.1 nM (active). The GI50 (IGROV-1) was 35.4 nM (active), the GI50 (K562) was 29.1 nM (active) and the GI50 (KM12) was 32.4 nM (active). For the same compound, the GI50 (LOX IMVI) was 31.3 nM (active), the GI50 (M14) was 63.7 nM (active) and the GI50 (MCF7) was 41.5 nM (active). For the same compound, the GI50 (MDA-MB-231) was 162 nM (active), the GI50 (MDA-MB-435) was 44.3 nM (active) and the GI50 (MDA-N) was 40.2 nM (active). For the same compound, the GI50 (MOLT-4) was 16.7 nM (active), the GI50 (Malme-3M) was 23.6 nM (active) and the GI50 (NCI-H226) was 50.8 nM (active). For the same compound, the GI50 (NCI-H23) was 11.4 nM (active), the GI50 (NCI-H460) was 14.8 nM (active) and the GI50 (NCI-H522) was < 10 nM (active). The GI50 (NCI/ADR-RES) was 23.8 nM (active), the GI50 (OVCAR-3) was 11.9 nM (active) and the GI50 (OVCAR-4) was 15.3 nM (active). For the same compound, the GI50 (OVCAR-5) was 33 nM (active), the GI50 (OVCAR-8) was 37.8 nM (active) and the GI50 (PC-3) was 32.2 nM (active). The GI50 (RPMI-8226) was 39.5 nM (active), the GI50 (RXF 393) was 27.9 nM (active) and the GI50 (SF-268) was 23.6 nM (active). For the same compound, the GI50 (SF-295) was 29.9 nM (active), the GI50 (SF-539) was 31.5 nM (active) and the GI50 (SK-MEL-28) was 129 nM (active). The GI50 (SK-MEL-2) was 67.9 nM (active), the GI50 (SK-MEL-5) was 29.6 nM (active) and the GI50 (SK-OV-3) was 38.5 nM (active). For the same compound, the GI50 (SN12C) was 42.3 nM (active), the GI50 (SNB-19) was 63.7 nM (active) and the GI50 (SNB-75) was 48.3 nM (active). For the same compound, the GI50 (SR) was 44.3 nM (active), the GI50 (SW-620) was 43.5 nM (active) and the GI50 (T47D) was 45.5 nM (active). The GI50 (TK-10) was 29.9 nM (active), the GI50 (U-251) was 30.2 nM (active) and the GI50 (UACC-257) was 54.1 nM (active). For the same compound, the GI50 (UACC-62) was 38.7 nM (active) and the GI50 (UO-31) was 48.6 nM (active).
With `O=C(O)c1cc(=O)c2c(OCC(O)COc3cccc4oc(C(=O)O)cc(=O)c34)cccc2o1` the GI50 (786-0) was > 100000 nM (inactive), the GI50 (A498) was > 59000 nM (inactive) and the GI50 (A549) was > 84300 nM (inactive). For the same compound, the GI50 (ACHN) was > 100000 nM (inactive), the GI50 (BT-549) was > 100000 nM (inactive) and the GI50 (CAKI-1) was > 100000 nM (inactive). For the same compound, the GI50 (CCRF-CEM) was > 71000 nM (inactive), the GI50 (COLO 205) was > 68400 nM (inactive) and the GI50 (DU-145) was > 100000 nM (inactive). For the same compound, the GI50 (EKVX) was > 96600 nM (inactive), the GI50 (HCC 2998) was > 100000 nM (inactive) and the GI50 (HCT-116) was > 74800 nM (inactive). For the same compound, the GI50 (HCT-15) was > 100000 nM, the GI50 (HL-60) was > 100000 nM (inactive) and the GI50 (HOP-62) was > 91200 nM (inactive). The GI50 (HOP-92) was > 63800 nM (inactive), the GI50 (HT-29) was > 75700 nM (inactive) and the GI50 (Hs-578T) was > 72400 nM (inactive). The GI50 (IGROV-1) was > 60500 nM (inactive), the GI50 (K562) was > 90200 nM (inactive) and the GI50 (KM12) was > 85900 nM (inactive). For the same compound, the GI50 (LOX IMVI) was > 61400 nM (inactive), the GI50 (M14) was > 88100 nM (inactive) and the GI50 (MCF7) was > 85100 nM (inactive). The GI50 (MDA-MB-231) was > 81100 nM (inactive), the GI50 (MDA-MB-435) was > 67500 nM (inactive) and the GI50 (MDA-N) was > 71800 nM (inactive). For the same compound, the GI50 (MOLT-4) was > 87700 nM (inactive), the GI50 (Malme-3M) was > 75300 nM (inactive) and the GI50 (NCI-H226) was > 100000 nM (inactive). The GI50 (NCI-H23) was > 84300 nM (inactive), the GI50 (NCI-H460) was > 100000 nM (inactive) and the GI50 (NCI-H522) was > 56800 nM (inactive). For the same compound, the GI50 (NCI/ADR-RES) was > 100000 nM (inactive), the GI50 (OVCAR-3) was > 100000 nM (inactive) and the GI50 (OVCAR-4) was > 100000 nM (inactive). For the same compound, the GI50 (OVCAR-5) was > 84300 nM (inactive), the GI50 (OVCAR-8) was 99500 nM (inactive) and the GI50 (PC-3) was > 100000 nM (inactive). For the same compound, the GI50 (RPMI-8226) was > 70100 nM (inactive), the GI50 (RXF 393) was > 100000 nM (inactive) and the GI50 (SF-268) was > 100000 nM (inactive). The GI50 (SF-295) was > 95500 nM (inactive), the GI50 (SF-539) was 98200 nM (inactive) and the GI50 (SK-MEL-28) was > 100000 nM (inactive). The GI50 (SK-MEL-2) was > 56400 nM (inactive), the GI50 (SK-MEL-5) was > 65900 nM (inactive) and the GI50 (SK-OV-3) was > 72900 nM (inactive). The GI50 (SN12C) was > 100000 nM (inactive), the GI50 (SNB-19) was > 100000 nM (inactive) and the GI50 (SNB-75) was > 61000 nM (inactive). For the same compound, the GI50 (SR) was > 81800 nM (inactive), the GI50 (SW-620) was > 83000 nM (inactive) and the GI50 (T47D) was > 100000 nM (inactive). The GI50 (TK-10) was > 100000 nM (inactive), the GI50 (U-251) was > 75200 nM (inactive) and the GI50 (UACC-257) was > 80400 nM (inactive). For the same compound, the GI50 (UACC-62) was > 68100 nM (inactive) and the GI50 (UO-31) was > 100000 nM (inactive).
